Measurements taken from paper PMC8328003 (ACS chemical neuroscience, 2021).
Where “and” joins values, the source holds several entries; their conditions need not be identical. Identical values can stand only once. Like-named read-outs stand apart in the source and are kept apart here.

Assays:
[1] = target: T1, mDOR (Mus musculus, UniProt P32300); assay: Competition binding against 125I-IBNtxA, CHO cell membranes
[2] = target: T1, mDOR; assay: [35S]GTPγS functional assay, CHO membranes; assay type: biochemical; conditions: for mDOR Emax: relative to DPDPE at 1000 nM
[3] = target: mKOR (Mus musculus, UniProt P33534); assay: [35S]GTPγS functional assay, CHO membranes; assay type: biochemical; conditions: for mKOR Emax: relative to U50,488H at 1000 nM
[4] = target: mouse kappa opioid receptor (mKOR) (Mus musculus, UniProt P33534); assay: Competition binding against 125I-IBNtxA, CHO cell membranes
[5] = target: mMOR (Mus musculus, UniProt P42866); assay: [35S]GTPγS functional assay, CHO membranes; assay type: biochemical; conditions: for mMOR Emax: relative to DAMGO at 1000 nM
[6] = target: mouse mu opioid receptor (mMOR) (Mus musculus, UniProt P42866); assay: Competition binding against 125I-IBNtxA, CHO cell membranes; conditions: for Ki: 125I-IBNtxA (0.1 nM), CHO membranes
[7] = target: human mu opioid receptor (hMOR) (Homo sapiens, UniProt P35372); assay: cell-based; assay type: cell-based
[8] = tested on: C57BL/6J mice; assay: 55 °C warm-water tail-withdrawal assay; assay type: in vivo, mouse; conditions: for antinociception ED50 (and 95% C.I.): WT C57BL/6J mice, from peak effect
[9] = target: human kappa opioid receptor (hKOR) (Homo sapiens, UniProt P41145); assay: BRET Gi-1 activation, HEK293T cells; assay type: cell-based; conditions: for pEC50 ± SEM Gi-1 activation hKOR / EC50: BRET; for EC50: read-out: EC50 Gi-1 activation hKOR
[10] = target: T2, hDOR (Homo sapiens, UniProt P41143); assay: BRET Gi-1 activation, HEK293T cells; assay type: cell-based; conditions: for Emax% ± SEM Gi-1 activation hDOR: normalized to control agonist (DPDPE; SNC80 in Figure 6G)
[11] = target: T3, hKOR (Homo sapiens, UniProt P41145); assay: BRET βarrestin-2 recruitment, HEK293T cells; assay type: cell-based; conditions: for pEC50 ± SEM βarrestin-2 recruitment hKOR / EC50: BRET; for EC50: read-out: EC50 βarrestin-2 recruitment hKOR
[12] = tested on: C57BL/6J mice; assay: CLAMS breathing rate; assay type: in vivo, mouse; conditions: 100 nmol, i.c.v., 180 min, versus vehicle
[13] = target: hMOR; conditions: read-out: binding affinity at hMOR; cited from earlier work
[14] = target: T2, hDOR; assay: BRET βarrestin-2 recruitment, HEK293T cells; assay type: cell-based; conditions: for Emax% ± SEM βarrestin-2 recruitment hDOR: normalized to DPDPE
[15] = tested on: C57BL/6J mice; assay: CLAMS locomotor activity; assay type: in vivo, mouse; conditions: 100 nmol, i.c.v., 180 min, versus vehicle
[16] = target: T4, hMOR (Homo sapiens, UniProt P35372); assay: BRET βarrestin-2 recruitment, HEK293T cells; assay type: cell-based
[17] = target: hDAT (Homo sapiens, UniProt Q01959); assay: NIMH-PDSP radioligand binding; conditions: read-out: affinity Ki hDAT
[18] = target: hH1 (Homo sapiens, UniProt P35367); assay: NIMH-PDSP radioligand binding; conditions: read-out: affinity Ki hH1
[19] = target: T4, hMOR; assay: NIMH-PDSP radioligand binding; conditions: read-out: affinity Ki hMOR
[20] = target: T3, hKOR; assay: NIMH-PDSP radioligand binding; conditions: read-out: affinity Ki hKOR
[21] = target: T4, hMOR; assay type: cell-based
[22] = target: T5, hα2A (Homo sapiens, UniProt P08913); assay: NIMH-PDSP radioligand binding; conditions: read-out: affinity Ki hα2A
T5 sequence (P08913 1-465): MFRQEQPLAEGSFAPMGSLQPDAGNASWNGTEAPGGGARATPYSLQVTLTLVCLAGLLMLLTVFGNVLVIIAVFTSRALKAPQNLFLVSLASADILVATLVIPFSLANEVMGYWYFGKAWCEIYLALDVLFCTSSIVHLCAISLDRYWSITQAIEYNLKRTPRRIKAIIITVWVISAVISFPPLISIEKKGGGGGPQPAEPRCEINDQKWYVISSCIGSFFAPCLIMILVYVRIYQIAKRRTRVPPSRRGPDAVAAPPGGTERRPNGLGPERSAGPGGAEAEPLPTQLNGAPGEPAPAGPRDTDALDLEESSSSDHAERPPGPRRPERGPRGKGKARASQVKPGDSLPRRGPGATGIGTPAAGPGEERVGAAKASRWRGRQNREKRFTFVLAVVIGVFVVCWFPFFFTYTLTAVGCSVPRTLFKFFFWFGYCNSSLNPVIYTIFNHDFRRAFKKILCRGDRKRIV

[23] = target: T4, hMOR; assay type: cell-based; remark: listed apart in the source
[24] = target: hSERT (Homo sapiens, UniProt P31645); assay: NIMH-PDSP radioligand binding; conditions: read-out: affinity Ki hSERT
[25] = target: hNET (Homo sapiens, UniProt P23975); assay: NIMH-PDSP radioligand binding; conditions: read-out: affinity Ki hNET
[26] = target: hNMDA; assay: NIMH-PDSP radioligand binding; design: species or system human; conditions: read-out: affinity Ki hNMDA
[27] = tested on: MOR; conditions: ex vivo; cited from earlier work
[28] = affinity (Ki) mDOR, 125I-IBNtxA (0.1 nM)
[29] = affinity (Ki) mKOR, 125I-IBNtxA (0.1 nM)
[30] = i.c.v., MOR KO / KOR KO mice versus WT

| Compound | Ki [1, 28] | mDOR Emax [2] | mKOR Emax [3] | Ki [4, 29] | mMOR Emax [5] | Ki ([6]; affinity (Ki) mMOR) | fold less potent than DAMGO, Gi-1 hMOR [7] | receptor dependence of antinociception [8, 30] | antinociception ED50 (and 95% C.I.) ([8]; i.c.v.) | effect on breath rate [12] | mKOR EC50 ([3]; [35S]GTPγS) | locomotor effect [15] | Emax% ± SEM Gi-1 activation hMOR [7] | pEC50 ± SEM Gi-1 activation hKOR [9] | Emax% ± SEM Gi-1 activation hKOR ([9]; normalized to U50,488H) | EC50 [9] | Emax% ± SEM Gi-1 activation hDOR [10] | pEC50 ± SEM βarrestin-2 recruitment hKOR [11] | Emax% ± SEM βarrestin-2 recruitment hKOR ([11]; normalized to U50,488H) | Emax% ± SEM βarrestin-2 recruitment hDOR [14] | other results |
| --- | --- | --- | --- | --- | --- | --- | --- | --- | --- | --- | --- | --- | --- | --- | --- | --- | --- | --- | --- | --- | --- |
| CC[C@@H]1CN2CC[C@]3(C(=O)Nc4ccccc43)[C@@H]2C[C@@H]1/C(=C\OC)C(=O)OC [corynoxine B] | 1.68 ± 0.261 µM | no activity | no activity | > 1 µM | no activity | 5.01 ± 0.388 µM |  |  |  |  |  |  |  |  |  |  |  |  |  |  | Ki ([4]; affinity (Ki) mKOR, 125I-IBNtxA (0.1 nM), μM): > 10 µM |
| CC[C@@H]1CN2CC[C@@]3(C(=O)Nc4ccccc43)[C@@H]2C[C@@H]1/C(=C\OC)C(=O)OC [corynoxine] | 1.27 ± 0.226 µM | no activity | no activity | 3.08 ± 1.73 µM | 136.4 ± 3.3% | 0.14 µM and 0.141 µM | 58 fold | MOR dependent | 3.43 (0.53–6.41) nmol | no depression of breath rate | no activity | did not produce significant hyperlocomotion |  |  |  |  |  |  |  |  | EC50 [7]: 1.63 µM; Emax ([7]; HEK-293T, read-out: Emax% ± SEM Gi-1 activation hMOR): 96.5 ± 4.69%; Emax ([9]; HEK-293T, read-out: Emax% ± SEM Gi-1 activation hKOR): < 20%; Emax ([10]; HEK-293T, read-out: Emax% ± SEM Gi-1 activation hDOR): < 20%; Emax ([11]; HEK-293T, read-out: Emax% ± SEM βarrestin-2 recruitment hKOR): < 20%; effect on breath rate ([12]; listed as Corynoxine): increase in breath rates; Ki [13]: 0.0164 µM; Emax ([14]; HEK-293T, read-out: Emax% ± SEM βarrestin-2 recruitment hDOR): < 20%; EC50 [5]: 0.203 ± 0.0044 µM; Emax at 1 µM ([5]; read-out: mMOR Emax, relative to DAMGO at 1000 nM): 136%; Emax ([16]; HEK-293T, read-out: Emax% ± SEM βarrestin-2 recruitment hMOR): < 20% |
| C=C[C@H]1CN2CCc3c([nH]c4cccc(OC)c34)[C@H]2C[C@@H]1/C(=C\OC)C(=O)OC [isopaynantheine] |  | no activity | 93.5 ± 5% |  | 50 ± 5% |  |  | MOR independent and KOR dependent |  |  |  |  | < 20% | 6.25 ± 0.066 | 80% | 0.56 µM | < 20% | 6.22 ± 0.43 | < 20% | < 20% | Ki [17]: 5.07 µM; Ki [18]: 0.206 µM; Emax% ± SEM Gi-1 activation hKOR ([9]; normalized to U50,488H, listed as Isopaynantheine): 80.5 ± 2.9%; Ki [19]: 0.122 µM; Ki ([1]; read-out: affinity (Ki) mDOR, 125I-IBNtxA (0.1 nM)): 0.823 ± 0.127 µM; EC50 [11]: 0.599 µM; Ki [20]: 0.027 µM; Emax% ± SEM Gi-1 antagonism at MOR [21]: 156.91 ± 13.49%; Ki [22]: 2.15 µM; Emax% ± SEM βarrestin-2 antagonism at MOR [23]: 106 ± 8.67%; EC50 ([3]; read-out: mKOR EC50, [35S]GTPγS): 0.282 ± 0.018 µM; Ki [24]: 5.11 µM; Ki ([4]; read-out: affinity (Ki) mKOR, 125I-IBNtxA (0.1 nM)): 0.325 µM and 0.326 µM; EC50 ([5]; read-out: mMOR EC50, [35S]GTPγS): 0.192 ± 0.0058 µM; Ki ([6]; read-out: affinity (Ki) mMOR): 0.0918 ± 0.0058 µM; Emax% ± SEM βarrestin-2 recruitment hMOR ([16]; normalized to DAMGO): < 20% |
| CC[C@H]1CN2CCc3c([nH]c4cccc(OC)c34)[C@H]2C[C@@H]1/C(=C\OC)C(=O)OC [mitraciliatine] |  |  |  |  |  |  |  | MOR dependent and, surprisingly, independent of KOR |  | no respiratory depression |  | no significant hyperlocomotion |  | 6.57 ± 0.06 | 114.32 ± 2.42% | 0.269 µM |  | 6.42 ± 0.06 | 104% | < 20% | maximal antinociception (ceiling effect, % MPE) ([8]; i.c.v., WT mice, mitraciliatine at 100 nmol): 67%; Ki [25]: 6.6 µM; Emax% ± SEM βarrestin-2 recruitment hKOR ([11]; normalized to U50,488H, listed as Mitraciliatine): 104.13 ± 2.57%; EC50 [11]: 0.383 µM; effect on breath rate ([12]; listed as Mitraciliatine): increase in breath rates; Ki [20]: 0.073 µM; Ki [22]: 2.15 µM |
| CN1CC[C@]23c4c5ccc(O)c4O[C@H]2[C@@H](O)C=C[C@H]3[C@H]1C5 [morphine, reference compound] |  |  |  |  |  |  |  |  | 4.77 (1.49–28.8) nmol | significant decrease in breath rate |  | significant locomotor effect |  |  |  |  |  |  |  |  |  |
| corynantheidine |  | no activity | no activity |  |  |  | 20 fold |  |  |  | no activity |  | 37% and 37.2 ± 4.30% |  |  |  | < 20% |  |  | < 20% | maximal antinociception (ceiling effect, % MPE) ([8]; mouse, in vivo): 50%; receptor dependence of antinociception ([8]; mouse, in vivo): MOR dependent; Emax% ± SEM Gi-1 activation hKOR [9]: < 20%; Ki [26]: 0.083 µM; Emax% ± SEM βarrestin-2 recruitment hKOR [11]: < 20%; mDOR EC50 ([2]; [35S]GTPγS): no activity; agonist action in guinea pig ileum [27]: no agonist actions; fold less potent than DAMGO, [35S]GTPγS ([5]; mMOR): about 30 fold; mMOR Emax ([5]; listed as corynanthedine): 74.13 ± 1.24%; fold higher mMOR affinity than mitragynine ([6]; same binding assay): ~4 fold; Emax% ± SEM βarrestin-2 recruitment hMOR [16]: < 20% |
